In US20070053941A1, “Vermin repellent” (priority 2003, published 2007):

Legend:
moles [1] = test: Garden test: fenced-in 100 square meter zone treated with IMP versus untreated control area (Example 2); type: in vivo, Talpa europaea
Excerpt: In a garden with an area of 700 square meters with notable mole activity, a zone with an area of 100 square meters was fenced in and treated with IMP under very favourable conditions.

moles [2] = test: Field test: IMP vials buried in mole tunnels at a summer residence lawn (Example 1); type: in vivo, Talpa europaea
Protocol: Locality: A summer residence in Ängelholm in the south of Sweden.
Active substance: 100 μl 20% IMP in hexane in a sealed glass vial which was crushed at application in a mole tunnel.

COc1nccnc1C(C)C [IMP, 2-isopropyl-3-methoxy-pyrazine]
Behaviour of moles in the treated area (moles [1]; Example 2, overall conclusion): decidedly disturbed
Mole hills observed in the treated area (moles [1]; after 4 days, 10 from the start, untreated control area 10 as compared with 6 from the start): 21 mole hills
Repelling effect on moles (comment on the observations) (moles [2]; Example 1, overall conclusion): has a repelling effect on moles
Observed effect: mole hills (moles [2]; January 2003, migration back after treatment in June): about 10 mole hills
Observed effect: new mole hills in direction from the vials (moles [2]; June 15, after 2 vials buried June 11 and 3 vials June 14 (100 μl 20% IMP in hexane each), about 20 mole hills at beginning of June): 4 new mole hills in direction
Observed effect: new mole hills (moles [2]; June 19, after 5 vials buried): 2 new mole hills
